“Also recorded” adds a separate entry of the source. Where two headings read alike, the source gives them in different places.
Columns and labels:
[1] = test system: anti-Chlamydia abzymes; type: biochemical, human
Experimental: (§1) For chemical inactivation, a diluent solution was divided into two portions. In one portion, an abzyme inhibitor was added.
(§2) The serum sample was split in two aliquots and one aliquot was diluted by solution containing the abzyme inhibitor, the second aliquot was diluted by the control solution. The aliquots were then tested in the same fashion.
Lipid peroxidation was assessed as a level of MDA concentration, which was measured by spectrophotometric methods [Draper, H. H. et al Free Radio. Biol. Med. (1993) 15, 353]. Briefly, the level of abzymes in a sample was determined as follows: Samples of sera were diluted 1:1 by 0.05M acetate buffer pH 4.0 to make the final pH of these samples between 5.6-5.8. 994 μl of the diluted serum was mixed with 10 μl of the commercial live ovine Chlamydia vaccine (Intervet). Samples were incubated overnight (12-16 hours) at 37° C. 250 μl of 40% trichloroacetic acid and 250 μl of 1 mM 2-thiobarbituric acid was added to each sample. All samples were placed in a water bath and boiled for 30 minutes. Samples were cooled down and centrifuged at 3,000 g for 10 minutes. The supernatants were collected and their absorption measured at λ525 nm to determine the concentration of malondialdehydes (MDA), which are products of lipid peroxidation.

[2] = test system: anti-Chlamydia abzymes; type: biochemical, human; remark: listed apart in the source
Experimental: as §1, §2
ELISA assays were performed using Medac materials and reagents, which were used in accordance with the manufacturers instructions.
Briefly, serum samples from patients were treated as described above. 50 μl of sample diluent was pipetted into microtitre well Al as blank, and 50 μl of the negative control, Positive Control and the diluted patients' samples were pipetted into other microtitre wells. The microplate wells were incubated for 60 min (±5 min) at 37° C. (±1° C.) in a humid chamber and then washed three times with 200 μl wash buffer per well. 50 μl of Conjugate was then added to each well and the microplate wells incubated again for 60 min (±5 min) at 37° C. (±1° C.) in a humid chamber and then washed. 50 μl of TME-Substrate, was added to each well and the microplate wells incubated for 30 min (±2 min) at 37° C. (±1° C.) in a humid chamber. The reaction was stopped by adding 100 μl of Stop Solution, to each well.
Photometric reading was performed at 450 nm (ref. 620-650 nm) within 15 min after adding the Stop Solution.
To calculate the results, the OD value of the blank (well Al) was subtracted from all other OD values. […] Cut-off=mean OD value of the Negative Control+0.380. Grey zone=Cut-off±10%
If there was a difference between 10 and 15% (or an increase in one titer in MIF) of the signal between treated and non-treated samples the conclusion was that the activity of the abzymes was unclear, or in the “grey” zone.

[3] = serum with live ovine Chlamydia vaccine, pH 5.6-5.8, overnight 37° C.
[4] = serum diluted with inhibitor solution vs control solution
[5] = summary in text, tested by ELISA and the lipid oxidation assay

Compound | Inhibition of abzymes ability to cause: Serum lipid peroxidation, in MDA assay [1, 3] | Inhibition of abzymes ability to cause: Damage of Chlamydia pneumoniae antigen, in ELISA [2, 4] | Inhibition of abzymes ability to cause: Serum lipid peroxidation, in MDA assay ([1]; pH 5.6) | Inhibition of abzymes ability to cause: Damage of Chlamydia pneumoniae antigen, in ELISA [2] | also measured
Cc1c(C)c2c(c(C)c1O)CC[C@@](C)(CCC[C@H](C)CCC[C@H](C)CCCC(C)C)O2 [(+) α-Tocopherol] | Negative | Negative | – | – | –
O=C(O)CN(CCOCCOCCN(CC(=O)O)CC(=O)O)CC(=O)O [EGTA] | – | Positive | – | – | Inhibition of abzyme activity (statement in text) [2, 5]: inhibit abzyme activity
O=C(O)CN(CCN(CC(=O)O)CC(=O)O)CC(=O)O [EDTA] | – | – | Positive | Positive | Inhibition of abzyme activity (statement in text) [2]: inhibit abzyme activity
CC(C)=CCC/C(C)=C/C=C/C(C)=C/C=C/C(C)=C/C=C/C=C(C)/C=C/C=C(C)/C=C/C=C(\C)CCC=C(C)C [Lycopene] | Negative | Negative | – | – | –
Haemoglobin | – | – | Positive | Positive | Inhibition of abzyme activity (statement in text) [2]: inhibit abzyme activity; also recorded: abzyme inhibitors
CC1=C(/C=C/C(C)=C/C=C/C(C)=C/C=C/C=C(C)/C=C/C=C(C)/C=C/C2=C(C)CCCC2(C)C)C(C)(C)CCC1 [β-Carotene] | – | – | Negative | Negative | –
OC[C@@H](O)[C@@H](O)[C@H](O)[C@H](O)CO [D-Mannitol] | Negative | Negative | – | – | –
(+) Catechin gallate | Positive | Positive | – | – | Inhibition of abzyme activity (statement in text) ([2]; summary in text, tested by ELISA and the lipid oxidation assay, listed as (+) catechin gallate): abzyme inhibitors; Inhibition of abzyme activity (statement in text) ([2]; summary in text, tested by ELISA and the lipid oxidation assay, listed as catechin gallate): inhibit abzyme activity; also recorded: abzyme inhibitors
O=C1O[C@H]([C@@H](O)CO)C(O)=C1O [Ascorbic acid] | Positive | Positive | – | – | Inhibition of abzyme activity (statement in text) [2, 5]: inhibit abzyme activity; Inhibition of abzyme activity (statement in text) ([2]; summary in text, tested by ELISA and the lipid oxidation assay, listed as ascorbic acid): abzyme inhibitors
O=C(O)c1ccccc1 [Benzoic acid] | – | – | Negative | Negative | –
CC[C@H]1OC(=O)[C@H](C)[C@@H](O[C@H]2C[C@@](C)(OC)[C@@H](O)[C@H](C)O2)[C@H](C)[C@@H](O[C@@H]2O[C@H](C)C[C@H](N(C)C)[C@H]2O)[C@](C)(O)C[C@@H](C)CN(C)[C@H](C)[C@@H](O)[C@]1(C)O [azithromycin] | – | – | – | – | Inhibition of abzyme activity (statement in text) [2, 5]: abzyme inhibitors
Cc1c(O)cc2c(c1C)O[C@](C)(CCC[C@H](C)CCC[C@H](C)CCCC(C)C)CC2 [(+) y-Tocopherol] | – | – | Negative | Negative | –
C[S+](C)[O-] [DMSO] | Positive | Positive | – | – | Inhibition of abzyme activity (statement in text) [2, 5]: inhibit abzyme activity; also recorded: abzyme inhibitors; Inhibition of abzyme activity (statement in text) ([2]; tested by ELISA and the lipid oxidation assay, listed as DMS): abzyme inhibitors
CC(=O)Oc1ccccc1C(=O)O [Acetyl salicylic acid] | Positive | Positive | – | – | Inhibition of abzyme activity (statement in text) ([2]; tested by ELISA and the lipid oxidation assay): inhibit abzyme activity; also recorded: abzyme inhibitors
CC[C@H]1OC(=O)[C@H](C)C(=O)[C@H](C)[C@@H](O[C@@H]2O[C@H](C)C[C@H](N(C)C)[C@H]2O)[C@](C)(OC)C[C@@H](C)C(=O)[C@H](C)[C@H]2N(CCCCn3cnc(-c4cccnc4)c3)C(=O)O[C@]12C [Telithromycin, Ketek, Telithromycin] | Positive | Positive | – | – | Inhibition of abzyme activity (statement in text) ([2]; summary in text, tested by ELISA and the lipid oxidation assay, listed as telithromycin): abzyme inhibitors; Inhibition of abzyme activity (statement in text) ([2]; summary in text, tested by ELISA and the lipid oxidation assay, listed as telithromycin ketek): inhibit abzyme activity; Inhibition of abzyme activity (statement in text) ([2]; summary in text, tested by ELISA and the lipid oxidation assay, listed as telithromycin-ketek): abzyme inhibitors

Source: patent US20130095505A1, “DETECTION OF LIPID OXIDISING ABZYMES IN SAMPLES” (priority 2005, published 2013)
